Test [1] has as its system cerulein-induced acute pancreatitis. The test is described as follows: Cerulein-induced acute pancreatitis in mice. It counts as in vivo. To be noted: 10 mg/kg i.p. 0.5 and 2.5 h after first cerulein injection; 6 h. The procedure: Male CD-1 mice (33–39 g, 8 weeks, Charles River Laboratories; Calco, Italy) were fed with standard rodent chow and water and acclimated for 4 days at a 12 h light and 12 h dark schedule in a constant air-conditioned environment (21 ± 2 °C). The mice were randomly assigned to groups, and experiments were carried out during the light phase. Experimental procedures were conducted in conformity with Italian (D.L. 26/2014) and European (directive 2010/63/EU) regulations on the protection of animals used for scientific purposes and approved by the Italian Ministry. Acute pancreatitis (AP) was induced in mice by intraperitoneal (i.p.) injections of cerulein (50 μg/kg) hourly (5 times).[56] The groups were: (a) Sham group which received saline i.p. hourly (×5); […] The mice were killed 6 h after the first cerulein injection. Blood samples were obtained by direct intracardiac puncture. Pancreases and lungs were removed immediately, frozen, and stored at −80 °C until assayed. Portions of these organs were also fixed in formaldehyde for histological and immunohistochemical examination. Pancreas and lung sections (6 μm) were stained for hematoxylin & eosin (H&E). Evaluation of pancreas edema and inflammation signs were performed with a three-point scoring system. […] Analysis was performed in a blinded manner. Evaluation of lung edema and inflammatory infiltration was performed with three-point scoring system: 0, absent; 1, mild; 2, moderate; 3, severe. […] Tissue sections were then incubated with normal goat serum (Vector Laboratories, Newark, California) for 20 min to reduce nonspecific antibody interactions. Sections were incubated with primary antibody diluted in 0.01 M PBS, 2.5% normal serum (anti-Neutrophils rat monoclonal antibody, dilution 1:100, Abcam) for 30 min. After rinsing with PBS 0.01 M for 5 min, slides were incubated with biotinylated goat anti-rat IgG (Vector Laboratories, Newark, California), diluted 1:200, for 30 min. After rinsing with PBS 0.01 M for 5 min, slides were incubated with VECTASTAIN ABC Reagent (Vector Laboratories, Newark, California) for 30 min. Color development was performed using […] 3,3′-diaminobenzidine solution (Sigma-Aldrich, Milan, Italy), and sections were analyzed using Leica Microsystem with a magnification of 20x. Semiquantitative determination of protein expression was obtained with ImageJ/Fiji software. Liver injury was assessed by measuring the rise in plasma levels of alanine aminotransferase (ALT, a specific marker for hepatic parenchymal injury) and aspartate aminotransferase (AST, a nonspecific marker for hepatic injury) 6 h after cerulein injection by a clinical laboratory. Results are expressed in international units per milliliter.

The target in another test is T1, Human recombinant sEH (Homo sapiens, UniProt P34913).
T1 construct: made in house; host or cells: Sf9 insect cells (recombinant baculovirus)
T1 sequence (P34913 1-555): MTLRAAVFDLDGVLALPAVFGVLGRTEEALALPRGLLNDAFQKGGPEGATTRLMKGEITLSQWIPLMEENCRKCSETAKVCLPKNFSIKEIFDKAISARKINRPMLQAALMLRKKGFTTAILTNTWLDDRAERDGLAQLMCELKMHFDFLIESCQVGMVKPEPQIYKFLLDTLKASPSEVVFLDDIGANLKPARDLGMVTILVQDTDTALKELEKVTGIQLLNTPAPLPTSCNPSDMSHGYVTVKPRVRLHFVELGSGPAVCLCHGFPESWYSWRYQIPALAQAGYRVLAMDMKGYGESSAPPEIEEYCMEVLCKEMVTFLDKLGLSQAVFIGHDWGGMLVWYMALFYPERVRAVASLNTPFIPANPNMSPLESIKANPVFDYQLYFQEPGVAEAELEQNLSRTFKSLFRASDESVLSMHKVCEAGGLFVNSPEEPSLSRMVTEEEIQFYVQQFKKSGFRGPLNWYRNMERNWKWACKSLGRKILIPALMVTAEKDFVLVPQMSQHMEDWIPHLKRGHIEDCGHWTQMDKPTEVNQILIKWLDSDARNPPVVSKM
The test is described as follows: Cell-free sEH activity (PHOME fluorescence). To be noted: human isolated sEH. It counts as biochemical. On the procedure:
Human recombinant sEH was expressed in Sf9 insect cells and purified by affinity chromatography. […] Elution with 4-fluorochalcone oxide in PBS pH 7.4 with 1 mM dithiothreitol and 1 mM EDTA yielded sEH, which was dialyzed and concentrated. Purified sEH (60 ng) in 25 mM Tris HCl pH 7 with 0.1 mg/mL bovine serum albumin (BSA) was preincubated with the vehicle (DMSO) or test compounds for 1 min at room temperature. The sEH substrate PHOME (20 μM, Cayman Chemicals) was added to start the enzymatic reaction, which was stopped after 60 min in the dark by the addition of ZnSO4 (200 mM).

In test [2] the target is T2, 5-LOX (Homo sapiens, UniProt P09917).
T2 sequence (P09917 1-674): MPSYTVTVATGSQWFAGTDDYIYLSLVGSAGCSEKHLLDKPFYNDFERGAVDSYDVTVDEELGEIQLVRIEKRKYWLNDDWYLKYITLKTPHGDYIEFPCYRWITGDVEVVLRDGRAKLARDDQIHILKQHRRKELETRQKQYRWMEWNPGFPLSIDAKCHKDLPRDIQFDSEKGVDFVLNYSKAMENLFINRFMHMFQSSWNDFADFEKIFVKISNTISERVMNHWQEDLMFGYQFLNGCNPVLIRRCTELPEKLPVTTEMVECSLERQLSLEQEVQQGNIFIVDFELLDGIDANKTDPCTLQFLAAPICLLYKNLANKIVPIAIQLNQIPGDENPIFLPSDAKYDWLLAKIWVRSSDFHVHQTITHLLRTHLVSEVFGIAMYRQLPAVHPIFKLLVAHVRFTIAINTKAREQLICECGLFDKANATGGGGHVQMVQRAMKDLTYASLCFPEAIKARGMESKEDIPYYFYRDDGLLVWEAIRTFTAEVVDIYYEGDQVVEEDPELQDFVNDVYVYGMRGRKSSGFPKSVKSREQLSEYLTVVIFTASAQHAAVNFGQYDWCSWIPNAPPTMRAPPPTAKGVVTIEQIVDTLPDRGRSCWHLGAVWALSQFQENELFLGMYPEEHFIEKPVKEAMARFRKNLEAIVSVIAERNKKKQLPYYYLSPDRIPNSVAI
In words: Cell-free 5-LOX activity assay. It counts as biochemical. Set-up: made in house; host or cells: Escherichia coli Bl21 (DE3). As to conditions: human isolated 5-LOX. On the procedure:
Human recombinant 5-LOX was expressed in Escherichia coli Bl21 (DE3) cells that were transformed with the plasmid pT3-5LO (wt 5-LOX) and purified on an adenosine triphosphate (ATP)-agarose column by affinity chromatography.[40],[41] In a first step, E. coli was lysed in 50 mM triethanolamine/HCl pH 8.0 with ethylenediamine tetraacetic acid (EDTA) (5 mM), soybean trypsin inhibitor (60 μg/mL), phenylmethanesulfonyl fluoride (1 mM), dithiothreitol (1 mM), and lysozyme (1 mg/mL) and sonicated 3 times for 15 s. The homogenate was centrifuged at 40,000g for 20 min at 4 °C. The supernatant was transferred to an ATP-agarose column (Sigma-Aldrich, Deisenhofen, Germany), which was sequentially washed with phosphate-buffered saline (PBS) pH 7.4, 1 mM EDTA, 50 mM phosphate buffer pH 7.4, 0.5 M NaCl, 1 mM EDTA, and finally 50 mM phosphate buffer pH 7.4 plus 1 mM EDTA. The enzyme was eluted with 50 mM phosphate buffer pH 7.4, 1 mM EDTA, and 20 mM ATP.
5-LOX product formation was started by the addition of 20 μM arachidonic acid (Sigma-Aldrich) and CaCl2 (2 mM) and stopped by the addition of an equal volume of ice-cold methanol containing PGB1 (200 ng) as internal standard after 10 min at 37 °C.

The target of test [3] is T2, 5-LOX. The test is described as follows: 5-LOX product formation in human activated PMNL (A23187). It counts as cell-based. Details: Freshly isolated PMNL (5 × 10^6) suspended in PBS pH 7.4 with 1 mg/mL glucose were preincubated with the test compounds; endogenous in cells; host or cells: human PMNL from donor blood; remaining activity: dose or concentration left out as unconfirmed. As to conditions: for remaining activity at 10 µM: human activated PMNL, read-out: 5-LOX residual activity in PMNL (%) at 10 μM; for remaining activity: PMNL, read-out: 5-LO residual activity in PMNL (%). On the procedure: Human PMNL were freshly isolated from leukocyte concentrates that were obtained from the Institute for Transfusion Medicine of the University Hospital Jena (Germany). […] These volunteers regularly donated blood (every 8–12 weeks) and were physically inspected by a clinician. […] Leukocytes were concentrated by centrifugation (4000g/20 min/20 °C) of freshly withdrawn blood. […] PMNL were obtained from the cell pellet. […] The reaction was stopped with an equal volume of methanol containing PGB1 (200 ng) as internal standard. Major 5-LOX products (all-trans isomers of LTB and 5-HETE, and additionally LTB4) were extracted and analyzed by RP-HPLC as described for the determination of cell-free 5-LOX activity.

Another test concerns sEH. As to conditions: cited from earlier work.

Turning to `O=C(O)CCCCCCCCCCCNC(=O)NC12CC3CC(CC(C3)C1)C2` [AUDA, reference compound], in test [1], the “pancreatic injury (edema, cell infiltration, neutrophil numbers)” value was “reduced pancreatic injury”.
Turning to `O=C(NCC12C[C@H]3C[C@@H](C1)C[C@@H](C2)C3)Nc1ccc2c(ccn2-c2ccc(F)cc2)c1` [Compound 45, 1-(((3R,5R,7R)-Adamantan-1-yl)methyl)-3-(1-(4-fluorophenyl)-1H-indol-5-yl)urea], the half-inhibitory concentration (IC50) at Human recombinant sEH amounted to 4.4 ± 0.5 nM. Also, the half-inhibitory concentration (IC50) against 5-LOX [2] is above 1000 nM. On 5-LOX [3], the remaining activity at 10 µM came to 80.9 ± 1.7% and the remaining activity was found to be 80.9 ± 1.7%.
On to `O=C(NCC12C[C@H]3C[C@@H](C1)C[C@@H](C2)C3)Nc1ccc2c(c1)c1ccccc1n2Cc1ccc(F)cc1` [Compound 48, 1-(((3R,5R,7R)-Adamantan-1-yl)methyl)-3-(9-(4-fluorobenzyl)-9H-carbazol-3-yl)urea], for which the values for the IC50 on Human recombinant sEH and against 5-LOX [2] were 20 ± 3.8 nM and above 1000 nM, respectively. Also, the remaining activity at 10 µM at 5-LOX [3] worked out at 92.6 ± 4%. Also, the remaining activity at 5-LOX [3] came out at 92.6 ± 4%.
As for `O=C(Nc1ccc2c(c1)CCN2Cc1ccc(F)cc1)NC1CCCCC1` [Compound 53], the “sEH inhibitory potency in words (Figure 1)” value in the test with sEH is given as “high sEH inhibitory potency”.

The record behind these values is PMC10350924, “Design, Synthesis, and Pharmacological Characterization of a Potent Soluble Epoxide Hydrolase Inhibitor for the Treatment of Acute Pancreatitis” (Journal of Medicinal Chemistry, 2023).
